System: sensitised amphetamine response (hyperactivity) in mice
Assay: Sensitised behavioural response to amphetamine in mice
Format: in vivo
Conditions: Mus musculus; amphetamine-pretreated mice; s.c. 30 min before D-amphetamine 1.25 mg/kg challenge; Std. Dev. in brackets; read-out: Inhibition of the sensitised amphetamine response, ED50
Experimental: Subjects. Male NMRI mice (Charles River) weighing approx. 35 g are used. […] 12 mice are used pr experimental group.
Experimental procedure. […] For the 17 days between the last day of pre-treatment and the test day, the animals are kept in their homecage receiving the care as described above. The experiment is performed under normal light conditions in an undisturbed room. The mice are treated with test substance or vehicle and placed individually in the test cages for 30 min. […] 5×8 infrared light sources and photocells interspaced by 4 cm monitor the locomotor activity. The light beams cross the cage 1.8 cm above the bottom of the cage.
Administration of compounds.
Data analyses. The total counts obtained in the 30 min test are averaged pr animal group and used for calculation of drug effects in the following manner: The average motility induced by an amphetamine challenge in amphetamine-pretreated animals is used as the sensitised response. The average motility induced by a vehicle challenge to vehicle-pretreated animals is used as a baseline motility response. […] Similarly an ED50 for inhibiting baseline motility is calculated by expressed the motility response in vehicle-pretreated, vehicle-challenged, drug-treated animals relative to the baseline motility response. A therapeutic index value is subsequently calculated by dividing the first ED50 by the second.

## Cc1nc(N2CCOCC2)nc(C)c1NC(=O)Cc1ccc(F)cc1 [N-(4,6-Dimethyl-2-morpholin-4-yl-pyrimidin-5-yl)-2-(4-fluoro-phenyl)-acetamide]
  ED50: 0.4 mg/kg
